This is an account of results in ChEMBL document CHEMBL2176977 (J Med Chem, 2012).

Molecules are shown by their SMILES. Active and inactive are the calls of the source. The rule behind the calls is not given here.

The test system of one test is Mus musculus. The experiment in a line: Antinociceptive activity in mouse assessed as tail withdrawal latency at 100 mg/kg by 55 degC warm water test. It counts as functional.
Test [1] has as its target Kappa-type opioid receptor (Cavia porcellus, UniProt P41144). The experiment in a line: Agonist activity at KOR in guinea pig vas deferens. The test is classed as functional, tissue-based.
The next test addresses Mu-type opioid receptor (Cavia porcellus, UniProt P97266). Nature of the test: Agonist activity at MOR in guinea pig vas deferens. The test is classed as functional, tissue-based.
Test [2] relates to Rhesus monkey. The experiment in a line: Reduction in morphine dependence in withdrawn rhesus monkey model assessed as attenuation of withdrawal effects at 0.5 mg/kg. It counts as functional, organism-based. Also noted: dose 0.5 mg/kg. As to conditions: Macaca mulatta.
Test [3] deals with Rhesus monkey. The experiment in a line: Reduction in morphine dependence in withdrawn rhesus monkey model assessed as attenuation of withdrawal effects at 0.1 mg/kg. The arrangement: dose 0.1 mg/kg. It counts as functional, organism-based. As to conditions: Macaca mulatta.
Test [4] can be described thus: Agonist activity at DOR in guinea pig vas deferens. As to conditions: Cavia porcellus. It counts as functional, tissue-based.
A short description of test [5]: Displacement of [3H]Cl-DPDPE from DOR in guinea pig brain membrane. On the technique in general: Displacement assays read how much labelled ligand stays bound in the presence of the test substance.

Sequence of Mu-type opioid receptor (P97266 whole entry): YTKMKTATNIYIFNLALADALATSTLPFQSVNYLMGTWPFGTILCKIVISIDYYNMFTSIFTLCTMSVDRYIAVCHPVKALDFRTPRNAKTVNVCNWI
Sequence of Kappa-type opioid receptor (P41144 whole entry): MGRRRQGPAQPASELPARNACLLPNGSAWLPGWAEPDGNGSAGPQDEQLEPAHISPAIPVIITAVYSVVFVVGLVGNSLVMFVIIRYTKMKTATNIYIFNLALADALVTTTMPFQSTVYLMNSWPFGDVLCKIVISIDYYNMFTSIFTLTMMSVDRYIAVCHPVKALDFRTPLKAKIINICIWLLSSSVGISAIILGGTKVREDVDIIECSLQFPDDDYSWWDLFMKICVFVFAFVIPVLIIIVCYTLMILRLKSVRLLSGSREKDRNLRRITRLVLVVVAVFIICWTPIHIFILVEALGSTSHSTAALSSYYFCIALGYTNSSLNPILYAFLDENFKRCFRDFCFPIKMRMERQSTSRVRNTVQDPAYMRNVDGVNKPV

For the compound `CN1CC[C@]23c4c5ccc(O)c4O[C@H]2[C@@H](O)C=C[C@H]3[C@H]1C5` [MORPHINE], the Activity in the test on Mus musculus is 100%. The EC50 is the concentration at which the effect is half-maximal. Consider `CO[C@]12CC[C@@]3(C[C@@H]1[C@](C)(O)C(C)(C)C)[C@H]1Cc4ccc(O)c5c4[C@@]3(CCN1CC1CC1)[C@H]2O5` [BUPRENORPHINE], for which the EC50 (in test [1]; at Mu-type opioid receptor) was 21 nM each time.

Take `COC(=O)/C=C/C(=O)N[C@@]12CCC(=O)[C@@H]3Oc4c(O)ccc5c4[C@@]31CCN(CC1CC1)[C@@H]2C5`: the outcome with Rhesus monkey [2] and with Rhesus monkey [3] was inactive. A word on the Ki: it is a measure of affinity in units of concentration, obtained from inhibition or displacement. `CO[C@@]12CC[C@@]3(C[C@@H]1[C@](C)(O)C(C)(C)C)[C@H]1Cc4ccc(O)c5c4[C@@]3(CCN1CC1CC1)[C@H]2O5` [BUPRENORPHINE]: the EC50 in test [4] turned out to be 21 nM. Further, the affinity in test [5] corresponds to a Ki of 1.6 nM.
